Results reported in ChEMBL document CHEMBL5303573, “Mapping human microbiome drug metabolism by gut bacteria and their genes” (Nature, 2019).

Legend:
[1] = The drug is tested on Anaerococcus hydrogenalis strain: DSM7454 for biotransformation. The drug concentrations were measured before and after a 12-h incubation by liquid-chromatography-coupled mass spectrometry (LC–MS); conditions: 2 µM
[2] = akkermansia muciniphila, 12 h, 2 µM
Description: The drug is tested on Akkermansia muciniphila strain: ATCC BAA-835 for biotransformation. The drug concentrations were measured before and after a 12-h incubation by liquid-chromatography-coupled mass spectrometry (LC–MS)

[3] = The drug is tested on Providencia stuartii strain: ATCC25827 for biotransformation. The drug concentrations were measured before and after a 12-h incubation by liquid-chromatography-coupled mass spectrometry (LC–MS); conditions: 2 µM
[4] = The drug is tested on Dorea formicigenerans strain: ATCC27755 for biotransformation. The drug concentrations were measured before and after a 12-h incubation by liquid-chromatography-coupled mass spectrometry (LC–MS); conditions: 2 µM
[5] = The drug is tested on Collinsella intestinalis strain: DSM13280 for biotransformation. The drug concentrations were measured before and after a 12-h incubation by liquid-chromatography-coupled mass spectrometry (LC–MS); conditions: 2 µM
[6] = The drug is tested on Bacteroides fragilis strain: HMW615 for biotransformation. The drug concentrations were measured before and after a 12-h incubation by liquid-chromatography-coupled mass spectrometry (LC–MS); conditions: 2 µM
[7] = The drug is tested on Bacteroides sp. WH2 strain: WH2 for biotransformation. The drug concentrations were measured before and after a 12-h incubation by liquid-chromatography-coupled mass spectrometry (LC–MS); conditions: bacteroides sp. wh2, 12 h, 2 µM
[8] = bacteroides intestinalis, 12 h, 2 µM
Description: The drug is tested on Bacteroides intestinalis strain: DSM17393 for biotransformation. The drug concentrations were measured before and after a 12-h incubation by liquid-chromatography-coupled mass spectrometry (LC–MS)

[9] = The drug is tested on Ruminococcus torques strain: ATCC27756 for biotransformation. The drug concentrations were measured before and after a 12-h incubation by liquid-chromatography-coupled mass spectrometry (LC–MS); format: ADME; parameters: dose 2 uM, timepoint 0 vs 12 hours; conditions: 2 µM
[10] = The drug is tested on Odoribacter splanchnicus strain: fecal isolate for biotransformation. The drug concentrations were measured before and after a 12-h incubation by liquid-chromatography-coupled mass spectrometry (LC–MS); conditions: 2 µM
[11] = The drug is tested on Bacteroides finegoldii strain: DSM17565 for biotransformation. The drug concentrations were measured before and after a 12-h incubation by liquid-chromatography-coupled mass spectrometry (LC–MS); conditions: 2 µM
[12] = The drug is tested on Bacteroides coprophilus strain: DSM18228 for biotransformation. The drug concentrations were measured before and after a 12-h incubation by liquid-chromatography-coupled mass spectrometry (LC–MS); conditions: 2 µM
[13] = The drug is tested on Bacteroides caccae strain: ATCC43185 for biotransformation. The drug concentrations were measured before and after a 12-h incubation by liquid-chromatography-coupled mass spectrometry (LC–MS); conditions: 2 µM
[14] = The drug is tested on Bifidobacterium ruminantium strain: fecal isolate for biotransformation. The drug concentrations were measured before and after a 12-h incubation by liquid-chromatography-coupled mass spectrometry (LC–MS); conditions: 2 µM
[15] = The drug is tested on Bacteroides uniformis strain: ATCC8492 for biotransformation. The drug concentrations were measured before and after a 12-h incubation by liquid-chromatography-coupled mass spectrometry (LC–MS); conditions: 2 µM
[16] = bacteroides fragilis, 12 h, 2 µM
Description: The drug is tested on Bacteroides fragilis strain: DS-208 for biotransformation. The drug concentrations were measured before and after a 12-h incubation by liquid-chromatography-coupled mass spectrometry (LC–MS)

[17] = The drug is tested on Bacteroides xylanisolvens strain: DSM18836 for biotransformation. The drug concentrations were measured before and after a 12-h incubation by liquid-chromatography-coupled mass spectrometry (LC–MS); conditions: 2 µM
[18] = The drug is tested on Bacteroides vulgatus strain: ATCC8482 for biotransformation. The drug concentrations were measured before and after a 12-h incubation by liquid-chromatography-coupled mass spectrometry (LC–MS); conditions: phocaeicola vulgatus, 2 µM
[19] = parabacteroides johnsonii, 12 h, 2 µM
Description: The drug is tested on Parabacteroides johnsonii strain: DSM18315 for biotransformation. The drug concentrations were measured before and after a 12-h incubation by liquid-chromatography-coupled mass spectrometry (LC–MS)

[20] = The drug is tested on Providencia rettgeri strain: DSM1131 for biotransformation. The drug concentrations were measured before and after a 12-h incubation by liquid-chromatography-coupled mass spectrometry (LC–MS); format: ADME; parameters: dose 2 uM, timepoint 0 vs 12 hours; conditions: 2 µM

Compound	Bacterial Biotransformation [1]	Bacterial Biotransformation [2]	Bacterial Biotransformation [3]	Bacterial Biotransformation [4]	Bacterial Biotransformation [5]	Bacterial Biotransformation [6]	Bacterial Biotransformation [7]	Bacterial Biotransformation [8]	Bacterial Biotransformation [9]	Bacterial Biotransformation [10]	Bacterial Biotransformation [11]	Bacterial Biotransformation [12]	Bacterial Biotransformation [13]	Bacterial Biotransformation [14]	Bacterial Biotransformation [15]	Bacterial Biotransformation [16]	Bacterial Biotransformation [17]	Bacterial Biotransformation [18]	Bacterial Biotransformation [19]	Bacterial Biotransformation [20]
CN1CCN2c3ccccc3Cc3ccccc3C2C1 (stereo unspecified) [MIANSERIN]	Compound NOT metabolized	Compound NOT metabolized	Compound NOT metabolized	Compound NOT metabolized	Compound NOT metabolized	Compound NOT metabolized	Compound NOT metabolized	Compound NOT metabolized	Compound NOT metabolized	Compound NOT metabolized	Compound NOT metabolized	Compound NOT metabolized	Compound NOT metabolized	Compound NOT metabolized	Compound NOT metabolized	Compound NOT metabolized	–	–	–	–
CC(C)(C)NC(=O)[C@H]1CC[C@H]2[C@@H]3CC[C@H]4NC(=O)C=C[C@]4(C)[C@H]3CC[C@]12C [FINASTERIDE]	Compound NOT metabolized	Compound metabolized	Compound NOT metabolized	Compound NOT metabolized	Compound NOT metabolized	Compound metabolized	Compound NOT metabolized	Compound NOT metabolized	Compound NOT metabolized	Compound metabolized	Compound metabolized	Compound NOT metabolized	Compound NOT metabolized	Compound NOT metabolized	Compound metabolized	Compound metabolized	Compound metabolized	Compound metabolized	–	–
CCN(CC)CCOC(=O)C(Cc1cccc2ccccc12)CC1CCCO1.O=C(O)C(=O)O (stereo unspecified) [NAFRONYL OXALATE]	Compound NOT metabolized	Compound NOT metabolized	Compound NOT metabolized	Compound NOT metabolized	Compound NOT metabolized	Compound NOT metabolized	Compound NOT metabolized	Compound NOT metabolized	Compound NOT metabolized	Compound metabolized	Compound NOT metabolized	–	Compound NOT metabolized	Compound metabolized	Compound metabolized	Compound NOT metabolized	Compound NOT metabolized	Compound metabolized	–	–
CN(C)CCC=C1c2ccccc2COc2ccccc21 [DOXEPIN]	Compound NOT metabolized	–	Compound NOT metabolized	Compound NOT metabolized	Compound NOT metabolized	Compound NOT metabolized	Compound NOT metabolized	Compound NOT metabolized	Compound NOT metabolized	Compound NOT metabolized	Compound NOT metabolized	Compound NOT metabolized	Compound NOT metabolized	Compound NOT metabolized	Compound NOT metabolized	Compound NOT metabolized	–	–	Compound NOT metabolized	–
O=C1NCC2(CCN(CCc3ccccc3)CC2)O1 [FENSPIRIDE]	Compound NOT metabolized	Compound NOT metabolized	Compound NOT metabolized	Compound NOT metabolized	Compound NOT metabolized	Compound metabolized	Compound NOT metabolized	–	Compound NOT metabolized	Compound NOT metabolized	Compound NOT metabolized	Compound metabolized	Compound NOT metabolized	–	Compound metabolized	Compound metabolized	Compound NOT metabolized	Compound NOT metabolized	Compound metabolized	Compound NOT metabolized
CC(CCc1ccccc1)NCC(O)c1ccc(O)c(C(N)=O)c1 (stereo unspecified) [LABETALOL]	Compound NOT metabolized	Compound NOT metabolized	Compound NOT metabolized	Compound NOT metabolized	Compound NOT metabolized	Compound NOT metabolized	Compound NOT metabolized	Compound NOT metabolized	Compound NOT metabolized	Compound NOT metabolized	Compound NOT metabolized	Compound NOT metabolized	Compound NOT metabolized	–	Compound NOT metabolized	Compound NOT metabolized	Compound NOT metabolized	Compound NOT metabolized	Compound NOT metabolized	Compound NOT metabolized
CCCN1C[C@H](CSC)C[C@@H]2c3cccc4[nH]cc(c34)C[C@H]21.CS(=O)(=O)O [PERGOLIDE MESYLATE]	Compound NOT metabolized	–	Compound NOT metabolized	Compound NOT metabolized	Compound NOT metabolized	Compound NOT metabolized	Compound NOT metabolized	Compound NOT metabolized	Compound NOT metabolized	–	Compound NOT metabolized	Compound NOT metabolized	Compound NOT metabolized	Compound NOT metabolized	Compound NOT metabolized	Compound NOT metabolized	Compound NOT metabolized	Compound NOT metabolized	Compound NOT metabolized	–
CC(=O)OCC(CCn1cnc2cnc(N)nc21)COC(C)=O [FAMCICLOVIR]	Compound NOT metabolized	Compound NOT metabolized	Compound NOT metabolized	Compound NOT metabolized	Compound NOT metabolized	Compound metabolized	Compound metabolized	Compound metabolized	Compound NOT metabolized	Compound metabolized	Compound metabolized	Compound metabolized	Compound metabolized	–	Compound metabolized	Compound metabolized	Compound metabolized	Compound metabolized	Compound metabolized	Compound NOT metabolized
CC(=O)O[C@]1(C(C)=O)CC[C@H]2[C@@H]3C=C(C)C4=CC(=O)CC[C@]4(C)[C@H]3CC[C@@]21C [MEGESTROL ACETATE]	Compound NOT metabolized	–	Compound metabolized	Compound NOT metabolized	Compound NOT metabolized	Compound metabolized	–	Compound metabolized	Compound NOT metabolized	Compound metabolized	Compound NOT metabolized	Compound NOT metabolized	–	Compound metabolized	Compound metabolized	Compound metabolized	Compound metabolized	Compound metabolized	Compound metabolized	–
